Calls of active or inactive are those of the source.
Tests used:
[1] = system: HEK293; test: cells; details: Homo sapiens
[2] = target: T1, Nucleotide-binding oligomerization domain-containing protein 1 (Homo sapiens, UniProt Q9Y239); test: blockers of NOD1 pathway activity – revised, SAR follow-up (AID 2333); type: functional
T1 sequence (Q9Y239 whole entry): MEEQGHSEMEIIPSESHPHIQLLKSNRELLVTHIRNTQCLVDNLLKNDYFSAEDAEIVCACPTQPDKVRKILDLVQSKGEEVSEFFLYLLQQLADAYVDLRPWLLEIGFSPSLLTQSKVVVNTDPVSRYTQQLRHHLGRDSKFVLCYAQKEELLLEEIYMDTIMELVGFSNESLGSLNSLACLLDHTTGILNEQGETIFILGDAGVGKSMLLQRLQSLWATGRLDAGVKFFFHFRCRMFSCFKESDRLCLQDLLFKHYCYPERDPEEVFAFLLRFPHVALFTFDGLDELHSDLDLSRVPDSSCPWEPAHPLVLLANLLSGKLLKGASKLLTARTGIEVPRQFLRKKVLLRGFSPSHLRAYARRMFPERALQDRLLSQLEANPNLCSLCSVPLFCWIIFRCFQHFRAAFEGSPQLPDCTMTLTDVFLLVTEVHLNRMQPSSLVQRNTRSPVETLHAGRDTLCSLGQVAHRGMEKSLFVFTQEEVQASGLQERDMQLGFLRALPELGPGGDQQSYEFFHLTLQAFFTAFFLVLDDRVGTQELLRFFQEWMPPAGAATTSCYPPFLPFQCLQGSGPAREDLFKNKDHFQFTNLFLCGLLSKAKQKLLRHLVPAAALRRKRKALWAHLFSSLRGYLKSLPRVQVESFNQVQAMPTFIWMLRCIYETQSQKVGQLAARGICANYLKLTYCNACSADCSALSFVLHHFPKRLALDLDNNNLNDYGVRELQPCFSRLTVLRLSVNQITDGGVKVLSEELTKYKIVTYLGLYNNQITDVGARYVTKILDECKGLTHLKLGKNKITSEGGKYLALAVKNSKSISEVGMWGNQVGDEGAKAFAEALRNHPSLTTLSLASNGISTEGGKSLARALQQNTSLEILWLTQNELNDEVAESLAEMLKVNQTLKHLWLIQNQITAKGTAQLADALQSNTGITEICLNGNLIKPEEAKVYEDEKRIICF

[3] = target: Tumor necrosis factor (Homo sapiens, UniProt P01375); test: analog potency on TNFa NF-kB signaling – cell-based, revised, SAR follow-up (AID 2337); type: functional
Chain of Tumor necrosis factor (P01375 whole entry, the tested form may be a part): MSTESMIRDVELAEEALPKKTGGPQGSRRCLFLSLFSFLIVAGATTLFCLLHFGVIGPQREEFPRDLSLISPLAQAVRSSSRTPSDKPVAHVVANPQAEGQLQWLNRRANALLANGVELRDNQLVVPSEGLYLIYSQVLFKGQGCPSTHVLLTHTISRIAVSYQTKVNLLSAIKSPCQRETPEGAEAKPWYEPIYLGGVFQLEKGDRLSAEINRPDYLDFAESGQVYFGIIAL

[4] = target: Nucleotide-binding oligomerization domain-containing protein 2 (Homo sapiens, UniProt Q9HC29); test: PubChem AID 2334; type: functional
[5] = Luminescence Cell-Based Dose Retest to Confirm Inhibitors of Cancer Stem Cells. [Related pubchem assays (depositor defined):AID2717, AID2721]; type: functional; details: Homo sapiens
[6] = target: T2, Tyrosine-protein phosphatase non-receptor type 22 (Homo sapiens, UniProt Q9Y2R2); type: functional
T2 sequence (Q9Y2R2 whole entry): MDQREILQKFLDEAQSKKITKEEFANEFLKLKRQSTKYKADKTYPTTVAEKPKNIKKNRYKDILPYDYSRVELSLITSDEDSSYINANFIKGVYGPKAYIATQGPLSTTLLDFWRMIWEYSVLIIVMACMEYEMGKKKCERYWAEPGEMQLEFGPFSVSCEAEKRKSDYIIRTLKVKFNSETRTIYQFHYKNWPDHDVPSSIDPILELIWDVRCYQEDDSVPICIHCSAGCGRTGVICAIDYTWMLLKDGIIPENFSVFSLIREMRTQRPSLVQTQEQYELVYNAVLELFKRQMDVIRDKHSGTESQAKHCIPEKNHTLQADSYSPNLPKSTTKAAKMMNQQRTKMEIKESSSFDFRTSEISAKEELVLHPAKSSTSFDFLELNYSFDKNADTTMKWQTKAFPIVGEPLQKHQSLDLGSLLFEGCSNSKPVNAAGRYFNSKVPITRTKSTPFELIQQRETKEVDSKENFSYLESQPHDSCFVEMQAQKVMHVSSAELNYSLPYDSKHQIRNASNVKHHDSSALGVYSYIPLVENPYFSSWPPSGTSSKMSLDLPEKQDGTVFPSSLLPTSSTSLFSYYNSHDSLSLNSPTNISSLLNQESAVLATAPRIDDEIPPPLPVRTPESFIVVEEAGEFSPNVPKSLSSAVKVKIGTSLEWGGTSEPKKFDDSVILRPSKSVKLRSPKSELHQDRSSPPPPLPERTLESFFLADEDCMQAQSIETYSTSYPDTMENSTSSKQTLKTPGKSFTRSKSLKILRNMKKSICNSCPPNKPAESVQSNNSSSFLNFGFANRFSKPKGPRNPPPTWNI

[7] = target: T3, Tyrosine-protein phosphatase non-receptor type 7 (Homo sapiens, UniProt P35236); type: functional
T3 sequence (P35236 whole entry): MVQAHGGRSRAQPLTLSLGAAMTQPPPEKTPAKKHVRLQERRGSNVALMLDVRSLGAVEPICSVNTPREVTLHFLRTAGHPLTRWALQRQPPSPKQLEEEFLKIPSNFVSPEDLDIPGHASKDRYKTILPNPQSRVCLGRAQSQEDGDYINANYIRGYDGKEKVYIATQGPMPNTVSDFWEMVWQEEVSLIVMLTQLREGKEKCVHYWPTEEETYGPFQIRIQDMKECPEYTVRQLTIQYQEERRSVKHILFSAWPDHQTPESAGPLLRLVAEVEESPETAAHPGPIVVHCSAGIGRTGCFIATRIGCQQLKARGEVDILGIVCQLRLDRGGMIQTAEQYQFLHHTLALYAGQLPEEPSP

[8] = target: T2, Tyrosine-protein phosphatase non-receptor type 22; type: functional; remark: listed apart in the source
[9] = alpha-synuclein stem-loop luciferase translation blockers – H4 neuroglioma cells, luminescence, confirmation (AID 1988); type: functional, cell-based
[10] = target: T4, Beta-galactosidase (Escherichia coli, UniProt Q8VNN2); test: PubChem AID 485352; type: functional
T4 sequence (Q8VNN2 whole entry): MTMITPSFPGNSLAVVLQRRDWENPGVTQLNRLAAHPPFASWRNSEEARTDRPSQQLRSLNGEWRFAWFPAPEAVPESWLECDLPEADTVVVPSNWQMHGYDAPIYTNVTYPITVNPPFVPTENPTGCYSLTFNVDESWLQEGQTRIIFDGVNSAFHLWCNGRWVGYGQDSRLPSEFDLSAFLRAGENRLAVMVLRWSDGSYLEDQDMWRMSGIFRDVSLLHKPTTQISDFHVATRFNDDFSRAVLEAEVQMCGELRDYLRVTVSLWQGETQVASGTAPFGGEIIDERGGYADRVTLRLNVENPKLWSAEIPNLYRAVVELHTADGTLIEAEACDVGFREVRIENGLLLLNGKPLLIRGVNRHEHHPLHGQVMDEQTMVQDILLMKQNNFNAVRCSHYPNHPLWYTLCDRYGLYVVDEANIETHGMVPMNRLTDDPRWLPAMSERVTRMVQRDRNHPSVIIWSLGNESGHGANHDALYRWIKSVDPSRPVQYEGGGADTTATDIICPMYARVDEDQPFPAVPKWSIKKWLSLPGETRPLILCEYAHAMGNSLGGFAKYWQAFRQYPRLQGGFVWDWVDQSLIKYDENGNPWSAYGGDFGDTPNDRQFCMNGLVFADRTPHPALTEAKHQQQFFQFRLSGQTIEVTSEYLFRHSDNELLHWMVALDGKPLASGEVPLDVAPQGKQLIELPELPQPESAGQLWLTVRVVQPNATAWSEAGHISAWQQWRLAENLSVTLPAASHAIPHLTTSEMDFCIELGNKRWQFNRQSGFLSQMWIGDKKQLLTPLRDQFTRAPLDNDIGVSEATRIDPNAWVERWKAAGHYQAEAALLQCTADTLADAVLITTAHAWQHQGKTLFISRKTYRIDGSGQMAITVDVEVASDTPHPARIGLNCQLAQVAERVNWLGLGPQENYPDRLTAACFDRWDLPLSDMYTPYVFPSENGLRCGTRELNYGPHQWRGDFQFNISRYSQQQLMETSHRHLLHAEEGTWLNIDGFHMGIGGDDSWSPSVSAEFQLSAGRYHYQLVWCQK

[11] = luciferase reporter signal suppression in cells – H4 neuroglioma cells, luminescence, dose response (AID 1990); type: functional, cell-based
[12] = Luminescence Cell-Based Dose Response HTS to Identify Inhibitors of 5'UTR Stem-Loop Driven Prion Protein mRNA Translation in H4 Neuroglioblastoma Cells. [Related pubchem assays: 1827 (Project Summary), 1813 (Primary HTS)]; type: functional
[13] = target: Nonstructural protein 1 (Influenza A virus, UniProt Q194T2); type: functional, Influenza A virus (A/California/07/2009(H1N1))
Chain of Nonstructural protein 1 (Q194T2 whole entry): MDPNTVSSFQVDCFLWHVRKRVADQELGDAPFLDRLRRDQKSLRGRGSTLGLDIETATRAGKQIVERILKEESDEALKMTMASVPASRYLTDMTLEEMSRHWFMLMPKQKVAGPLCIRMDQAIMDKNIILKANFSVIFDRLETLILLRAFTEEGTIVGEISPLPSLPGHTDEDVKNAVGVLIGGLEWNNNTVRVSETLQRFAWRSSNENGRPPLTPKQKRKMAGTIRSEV

[14] = system: Vero; test: cells; type: functional; details: Chlorocebus sabaeus
[15] = system: HEK293; test: EBV LMP1 TES2 canonical NF-kB signalling blockers – cell-based, HEK293, luciferase, cherry-pick, dose response (AID 588343); type: functional; details: Homo sapiens
[16] = system: Vero; test: cells; type: functional, cell-based; details: Chlorocebus sabaeus
[17] = system: INS1; test: INS-1E survival protection against cytokine death – cell-based, luminescence, retest, dose response (AID 449756); type: functional; details: Rattus norvegicus;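 further: cell death triggered by IL-1 beta plus TNF-alpha plus IFN-gamma mixture; protective hits raise ATP signal compared with cytokine alone wells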
[18] = target: T4, Beta-galactosidase; test: Dose response counterscreen for EBI2 assay utilizing the enzyme, b-galactosidase.; type: functional
[19] = target: T5, Type-1 angiotensin II receptor (Homo sapiens, UniProt P30556); test: antagonism of angiotensin II type 1 receptor – cell-based, uHTS hits, selectivity assay for APJ receptor antagonist project, dose response (AID 463214); type: functional;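 further: antagonist potency against angiotensin II stimulated AT1 response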
T5 sequence (P30556 whole entry): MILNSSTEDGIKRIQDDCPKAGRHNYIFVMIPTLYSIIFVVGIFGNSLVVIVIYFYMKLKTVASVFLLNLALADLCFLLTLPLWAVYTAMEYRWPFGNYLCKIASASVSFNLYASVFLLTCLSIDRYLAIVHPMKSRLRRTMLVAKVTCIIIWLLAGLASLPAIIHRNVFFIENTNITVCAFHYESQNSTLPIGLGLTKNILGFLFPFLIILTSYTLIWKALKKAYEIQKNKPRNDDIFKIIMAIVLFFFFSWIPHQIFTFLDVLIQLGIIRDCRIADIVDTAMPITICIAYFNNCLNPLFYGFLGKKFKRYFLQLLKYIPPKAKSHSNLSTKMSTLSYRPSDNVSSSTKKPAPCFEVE

[20] = target: T6, Voltage-gated N-type calcium channel alpha-1B subunit/Amyloid beta A4 precursor protein-binding family A member 1 (Homo sapiens, UniProt Q00975+Q02410); type: protein assay
T6 sequence (Q00975 whole entry): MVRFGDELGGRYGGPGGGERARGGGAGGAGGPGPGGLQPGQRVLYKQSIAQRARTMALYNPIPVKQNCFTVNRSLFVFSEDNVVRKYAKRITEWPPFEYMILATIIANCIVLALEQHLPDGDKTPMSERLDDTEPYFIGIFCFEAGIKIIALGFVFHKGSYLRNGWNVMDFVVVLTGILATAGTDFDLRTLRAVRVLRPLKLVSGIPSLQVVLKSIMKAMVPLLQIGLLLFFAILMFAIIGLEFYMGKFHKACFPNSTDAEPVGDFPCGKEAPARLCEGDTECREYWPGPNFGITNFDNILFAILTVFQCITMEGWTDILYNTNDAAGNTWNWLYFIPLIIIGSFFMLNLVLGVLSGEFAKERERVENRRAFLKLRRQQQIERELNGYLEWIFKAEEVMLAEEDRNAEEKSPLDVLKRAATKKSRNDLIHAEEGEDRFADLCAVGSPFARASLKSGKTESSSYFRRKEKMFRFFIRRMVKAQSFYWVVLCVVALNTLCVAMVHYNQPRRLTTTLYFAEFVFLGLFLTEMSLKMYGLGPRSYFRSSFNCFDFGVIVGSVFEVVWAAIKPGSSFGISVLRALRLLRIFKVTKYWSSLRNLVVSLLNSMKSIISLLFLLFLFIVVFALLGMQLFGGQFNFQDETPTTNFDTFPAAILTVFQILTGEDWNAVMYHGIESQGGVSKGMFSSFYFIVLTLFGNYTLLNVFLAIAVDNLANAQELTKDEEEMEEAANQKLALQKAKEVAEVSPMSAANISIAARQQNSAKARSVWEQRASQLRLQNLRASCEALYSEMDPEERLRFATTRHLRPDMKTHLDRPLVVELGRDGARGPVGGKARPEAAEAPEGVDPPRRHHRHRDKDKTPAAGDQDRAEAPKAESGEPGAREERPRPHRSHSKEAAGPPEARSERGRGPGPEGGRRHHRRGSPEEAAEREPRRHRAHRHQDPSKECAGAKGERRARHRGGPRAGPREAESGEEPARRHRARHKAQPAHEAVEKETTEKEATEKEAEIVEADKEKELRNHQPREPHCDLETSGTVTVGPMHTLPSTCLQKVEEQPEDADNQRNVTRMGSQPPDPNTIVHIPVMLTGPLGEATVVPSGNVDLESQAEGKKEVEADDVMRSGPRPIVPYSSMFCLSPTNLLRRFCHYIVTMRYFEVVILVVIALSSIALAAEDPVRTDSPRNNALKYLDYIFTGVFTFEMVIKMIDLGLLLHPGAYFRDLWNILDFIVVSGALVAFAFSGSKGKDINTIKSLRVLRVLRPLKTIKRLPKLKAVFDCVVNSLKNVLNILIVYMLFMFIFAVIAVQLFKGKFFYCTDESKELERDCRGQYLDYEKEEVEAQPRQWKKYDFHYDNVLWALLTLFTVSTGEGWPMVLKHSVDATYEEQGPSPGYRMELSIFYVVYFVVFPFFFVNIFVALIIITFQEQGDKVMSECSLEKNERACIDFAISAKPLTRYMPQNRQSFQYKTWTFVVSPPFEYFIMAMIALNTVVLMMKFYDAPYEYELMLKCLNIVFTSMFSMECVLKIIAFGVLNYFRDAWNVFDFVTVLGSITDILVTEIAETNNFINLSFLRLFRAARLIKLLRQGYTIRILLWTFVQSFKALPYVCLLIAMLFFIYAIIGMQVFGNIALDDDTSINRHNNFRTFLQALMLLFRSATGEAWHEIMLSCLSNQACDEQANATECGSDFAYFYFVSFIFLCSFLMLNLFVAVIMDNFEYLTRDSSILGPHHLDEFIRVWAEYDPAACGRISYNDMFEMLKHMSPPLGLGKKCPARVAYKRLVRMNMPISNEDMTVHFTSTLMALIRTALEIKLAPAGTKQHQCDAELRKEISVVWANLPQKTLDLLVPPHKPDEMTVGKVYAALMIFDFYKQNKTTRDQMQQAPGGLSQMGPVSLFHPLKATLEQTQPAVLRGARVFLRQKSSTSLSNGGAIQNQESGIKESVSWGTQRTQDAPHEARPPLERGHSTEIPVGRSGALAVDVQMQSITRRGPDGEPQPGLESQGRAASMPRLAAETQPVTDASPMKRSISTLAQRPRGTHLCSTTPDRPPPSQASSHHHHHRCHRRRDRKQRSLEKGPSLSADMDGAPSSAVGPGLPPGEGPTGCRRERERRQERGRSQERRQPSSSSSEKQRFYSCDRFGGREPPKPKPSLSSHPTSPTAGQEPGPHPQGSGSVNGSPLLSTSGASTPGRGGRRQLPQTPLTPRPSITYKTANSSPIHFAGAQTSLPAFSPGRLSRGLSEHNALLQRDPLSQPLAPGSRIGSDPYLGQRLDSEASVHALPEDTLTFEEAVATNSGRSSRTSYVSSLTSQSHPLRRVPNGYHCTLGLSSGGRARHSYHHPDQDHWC
T6 sequence (Q02410 whole entry): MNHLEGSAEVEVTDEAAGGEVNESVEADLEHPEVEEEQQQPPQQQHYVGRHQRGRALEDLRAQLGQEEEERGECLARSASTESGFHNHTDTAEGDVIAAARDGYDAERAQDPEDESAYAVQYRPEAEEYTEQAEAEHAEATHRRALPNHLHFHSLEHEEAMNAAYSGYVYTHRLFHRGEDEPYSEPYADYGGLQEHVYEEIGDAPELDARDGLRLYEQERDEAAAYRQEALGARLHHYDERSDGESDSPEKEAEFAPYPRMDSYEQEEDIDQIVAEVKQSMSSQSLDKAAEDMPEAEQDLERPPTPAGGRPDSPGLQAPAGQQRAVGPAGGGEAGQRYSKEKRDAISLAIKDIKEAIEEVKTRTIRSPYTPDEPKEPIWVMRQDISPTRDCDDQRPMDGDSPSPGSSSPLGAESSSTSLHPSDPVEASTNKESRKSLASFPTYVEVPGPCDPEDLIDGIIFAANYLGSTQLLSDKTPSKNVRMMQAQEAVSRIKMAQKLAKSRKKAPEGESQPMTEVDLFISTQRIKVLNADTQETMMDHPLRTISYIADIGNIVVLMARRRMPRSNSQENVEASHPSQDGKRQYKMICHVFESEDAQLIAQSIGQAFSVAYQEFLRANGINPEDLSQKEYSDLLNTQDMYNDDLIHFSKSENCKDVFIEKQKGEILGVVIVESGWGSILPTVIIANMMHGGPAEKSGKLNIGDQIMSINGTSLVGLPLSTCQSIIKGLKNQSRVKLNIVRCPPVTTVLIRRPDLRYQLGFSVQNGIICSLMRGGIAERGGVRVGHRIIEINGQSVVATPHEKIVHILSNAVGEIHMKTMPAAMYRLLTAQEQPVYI

[21] = target: T7, Dual specificity protein phosphatase 3 (Homo sapiens, UniProt P51452); test: VHR1 phosphatase inhibitors, primary screen, biochemical, absorbance, uHTS (AID 1654)
T7 sequence (P51452 whole entry): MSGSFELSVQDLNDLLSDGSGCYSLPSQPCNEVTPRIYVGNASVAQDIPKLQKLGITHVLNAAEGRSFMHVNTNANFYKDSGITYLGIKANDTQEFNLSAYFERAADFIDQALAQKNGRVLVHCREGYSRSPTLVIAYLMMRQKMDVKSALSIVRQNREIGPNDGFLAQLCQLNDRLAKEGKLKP

[22] = target: T6, Voltage-gated N-type calcium channel alpha-1B subunit/Amyloid beta A4 precursor protein-binding family A member 1; type: protein assay; remark: listed apart in the source
[23] = target: Albumin (Bos taurus, UniProt P02769); test: Counterscreen for inhibitors of T-cell receptor (TCR)-CD3 interaction: Fluorescence-based biochemical high throughput dose response assay to identify inhibitors of T-cell receptor (TCR)-CD3 interaction using a TAMRA-labeled BSA probe.; type: functional
[24] = target: T8, Dual specificity protein phosphatase 6 (Rattus norvegicus, UniProt Q64346); test: inhibition of rat DUSP6 enzyme activity – biochemical, in vitro, primary screen (AID 425)
T8 sequence (Q64346 whole entry): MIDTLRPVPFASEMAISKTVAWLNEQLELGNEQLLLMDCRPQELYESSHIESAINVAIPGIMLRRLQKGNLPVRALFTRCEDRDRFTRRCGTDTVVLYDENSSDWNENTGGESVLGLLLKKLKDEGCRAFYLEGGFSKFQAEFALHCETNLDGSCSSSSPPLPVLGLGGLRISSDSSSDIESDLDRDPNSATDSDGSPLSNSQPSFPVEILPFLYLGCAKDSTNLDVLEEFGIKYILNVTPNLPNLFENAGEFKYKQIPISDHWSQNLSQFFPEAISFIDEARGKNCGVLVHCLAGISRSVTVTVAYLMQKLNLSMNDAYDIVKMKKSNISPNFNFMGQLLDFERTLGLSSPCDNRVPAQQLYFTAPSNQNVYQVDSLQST

[25] = target: T7, Dual specificity protein phosphatase 3; test: VHR1 phosphatase inhibitors, biochemical (AID 1878)
[26] = target: T9, Streptokinase A (Streptococcus pyogenes serotype M1, UniProt P10520); test: viability-normalized secreted streptokinase activity reduction – plasminogen activation absorbance, OD405, dose response (AID 1914); type: functional, Streptococcus pyogenes M1 GAS;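 further: secreted streptokinase activity via plasminogen activation per viability signal from cell pellet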
T9 sequence (P10520 whole entry): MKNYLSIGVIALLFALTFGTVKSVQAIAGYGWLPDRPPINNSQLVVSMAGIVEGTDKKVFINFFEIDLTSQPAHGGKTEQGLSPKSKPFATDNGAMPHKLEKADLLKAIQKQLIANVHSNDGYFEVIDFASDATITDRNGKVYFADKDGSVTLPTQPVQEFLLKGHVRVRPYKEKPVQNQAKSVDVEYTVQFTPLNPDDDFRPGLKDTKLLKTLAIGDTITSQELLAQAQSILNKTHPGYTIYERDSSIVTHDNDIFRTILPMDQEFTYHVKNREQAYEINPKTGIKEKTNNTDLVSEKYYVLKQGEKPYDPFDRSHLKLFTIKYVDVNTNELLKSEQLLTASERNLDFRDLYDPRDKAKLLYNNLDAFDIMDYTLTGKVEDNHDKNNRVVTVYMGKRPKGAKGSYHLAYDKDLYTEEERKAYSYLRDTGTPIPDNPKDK

[27] = microbe, parasite or virus in culture; type: functional; details: Mycobacterium tuberculosis
[28] = system: Streptococcus; test: GAS UMAA2166 growth inhibition – luminescence, BacTiterGlo, counter-screen for streptokinase expression inhibitor project, dose response (AID 1915); type: functional, organism-based;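 further: potency for reduction of bacterial viability or growth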
[29] = non-specific 3'UTR reporter inhibition in Clone20-Shn3RL – cell-based, Renilla luciferase, cherry-picked, counter-screen for Shn3 inhibitor project, dose response (AID 624133); type: functional
[30] = reduction of Shn3 3'UTR-driven luciferase in osteoblasts – cell-based, Clone20 osteoblasts, firefly luciferase, cherry-picked, dose response (AID 624132); type: functional;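 further: firefly luciferase luminescence from reporter carrying the Shn3 3'UTR in osteoblasts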
[31] = system: Streptococcus sp. 'group A'; test: Streptococcus pyogenes SK(-)GAS viability under kanamycin – luminescence, BacTiterGlo, confirmation, counter-screen for streptokinase expression inhibitor project, dose response (AID 1900); type: functional, organism-based
[32] = target: Lysine-specific demethylase 4C (Homo sapiens, UniProt Q9H3R0); test: inhibition of JMJD2C H3K9me3 demethylation – biochemical, DELFIA europium, cherry-picked samples, dose response (AID 488835); type: functional

COC(=O)c1c(NC(=O)c2ccccc2)sc2c1CC(C)(C)OC2
IC50 [1]: > 20 µM (inactive) | IC50 [2]: > 20 µM (inactive) | IC50 [3]: > 20 µM (inactive) | IC50 [4]: > 20 µM (inactive) | AC50 [5]: 9.23 µM (active)

CCNS(=O)(=O)c1cc(S(C)(=O)=O)ccc1Cl
IC50 [6]: > 79.4 µM (inactive) | IC50 [7]: > 79.4 µM (inactive) | IC50 [8]: > 79.4 µM (inactive)

C/C(=N/NC(=O)c1ccc(C(C)(C)C)cc1)c1ccccn1
EC50 [9]: 0.455 µM (active) | EC50 [10]: > 40 µM (inactive) | EC50 [11]: 3.75 µM (active) | EC50 [12]: 0.585 µM (active) | IC50 [13]: 6.97 µM (active) | CC50 [14]: 2.62 µM (active) | AC50 [15]: 1.31 µM (active) | IC50 [16]: > 25 µM (active) | AC50 [17]: 0.497 µM (active) | IC50 [18]: > 80 µM (inactive) | IC50 [19]: 3.48 µM (active)

Cc1cc(=O)oc2cc(OCC(=O)N/N=C/c3cc([N+](=O)[O-])ccc3O)ccc12
IC50 [20]: > 50 µM (inactive) | IC50 [21]: 4.25 µM (active) | IC50 [22]: > 56.8 µM (not active) | IC50 [23]: > 94.1 µM (inactive) | IC50 [24]: 24 µM (active) | IC50 [25]: 2.6 µM (active)

O=C(CSc1ccccn1)Nc1nonc1[N+](=O)[O-]
CC50 [14]: 20.7 µM (active) | EC50 [26]: > 150 µM (not active) | CC50 [27]: 24.5 µM (active) | IC50 [16]: > 25 µM (active) | EC50 [28]: > 150 µM (not active) | AC50 [29]: 12.5 µM (active) | AC50 [30]: 5 µM (active) | EC50 [31]: 5.77 µM (active)

COc1cc2c(cc1OC)C(COc1ccc(F)cc1)NCC2 (centres undefined)
AC50 [32]: 25.2 µM (active)

Source: ChEMBL document CHEMBL1201862, “PubChem BioAssay data set” (2004)
